Laboratory results from ChEMBL document CHEMBL1201862, “PubChem BioAssay data set” (2004).
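Following 48 hours of exposure in 96-well plates, responses at five concentrations were used to interpolate endpoints linearly. Here, GI50 denotes the concentration required for 50% inhibition of growth.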 The source made the active and inactive calls. No stated cut-off is given here; in the data, active = GI50 up to about 1.1 µM and inactive = higher.

Key:
Assay in all cases: growth of human tumour cells (NCI), 48 h
HCT-116 = tested on: HCT-116
NCI-H23 = tested on: NCI-H23
Malme-3M = tested on: Malme-3M
SN12C = tested on: SN12C
SK-MEL-5 = tested on: SK-MEL-5
SK-MEL-2 = tested on: SK-MEL-2
SK-OV-3 = tested on: SK-OV-3
DU-145 = tested on: DU-145
786-0 = tested on: 786-0
HL-60 = tested on: HL-60
ACHN = tested on: ACHN
UACC-257 = tested on: UACC-257
SNB-19 = tested on: SNB-19
MCF7 = tested on: MCF7
CAKI-1 = tested on: CAKI-1
SR = tested on: SR
OVCAR-4 = tested on: OVCAR-4
SF-539 = tested on: SF-539
HT-29 = tested on: HT-29
T47D = tested on: T47D
NCI/ADR-RES = tested on: NCI/ADR-RES
TK-10 = tested on: TK-10
UACC-62 = tested on: UACC-62
NCI-H460 = tested on: NCI-H460
IGROV-1 = tested on: IGROV-1
HOP-62 = tested on: HOP-62
K562 = tested on: K562
KM12 = tested on: KM12
A549 = tested on: A549
U-251 = tested on: U-251
NCI-H522 = tested on: NCI-H522
SNB-75 = tested on: SNB-75
Hs-578T = tested on: Hs-578T
MDA-N = tested on: MDA-N
CCRF-CEM = tested on: CCRF-CEM
SF-295 = tested on: SF-295
MDA-MB-435 = tested on: MDA-MB-435
SW-620 = tested on: SW-620
BT-549 = tested on: BT-549
LOX IMVI = tested on: LOX IMVI
RPMI-8226 = tested on: RPMI-8226
OVCAR-5 = tested on: OVCAR-5
OVCAR-3 = tested on: OVCAR-3
SF-268 = tested on: SF-268
UO-31 = tested on: UO-31
SK-MEL-28 = tested on: SK-MEL-28
PC-3 = tested on: PC-3
RXF 393 = tested on: RXF 393
M14 = tested on: M14
MOLT-4 = tested on: MOLT-4
HOP-92 = tested on: HOP-92
OVCAR-8 = tested on: OVCAR-8
COLO 205 = tested on: COLO 205
HCT-15 = tested on: HCT-15
MDA-MB-231 = tested on: MDA-MB-231
NCI-H226 = tested on: NCI-H226
EKVX = tested on: EKVX
A498 = tested on: A498

Question: For `NC(=O)/C(=C\c1ccncc1)c1cccc2ccccc12`, which GI50 (HCT-116) is on record?
Answer: > 100 µM (inactive)

Question: What about the GI50 (NCI-H23) of the same compound?
Answer: 91.6 µM (inactive)

Question: And the GI50 (Malme-3M)?
Answer: > 100 µM (inactive)

Question: And the GI50 (SN12C)?
Answer: 34.6 µM (inactive)

Question: And the GI50 (SK-MEL-5)?
Answer: 56.9 µM (inactive)

Question: What about the GI50 (SK-MEL-2) of the same compound?
Answer: > 100 µM (inactive)

Question: And the GI50 (SK-OV-3)?
Answer: > 100 µM (inactive)

Question: And the GI50 (DU-145)?
Answer: 67.8 µM (inactive)

Question: What about the GI50 (786-0) of the same compound?
Answer: > 100 µM (inactive)

Question: And the GI50 (HL-60)?
Answer: > 100 µM (inactive)

Question: And the GI50 (ACHN)?
Answer: > 100 µM (inactive)

Question: What about the GI50 (UACC-257) of the same compound?
Answer: < 0.01 µM (active)

Question: And the GI50 (SNB-19)?
Answer: > 100 µM (inactive)

Question: And the GI50 (MCF7)?
Answer: > 100 µM (inactive)

Question: And the GI50 (CAKI-1)?
Answer: > 100 µM (inactive)

Question: What about the GI50 (SR) of the same compound?
Answer: 53.3 µM (inactive)

Question: And the GI50 (OVCAR-4)?
Answer: > 100 µM (inactive)

Question: And the GI50 (SF-539)?
Answer: > 100 µM (inactive)

Question: And the GI50 (HT-29)?
Answer: > 100 µM (inactive)

Question: And the GI50 (T47D)?
Answer: > 100 µM (inactive)

Question: And the GI50 (NCI/ADR-RES)?
Answer: > 100 µM (inactive)

Question: And the GI50 (TK-10)?
Answer: > 100 µM (inactive)

Question: And the GI50 (UACC-62)?
Answer: 25.3 µM (inactive)

Question: What about the GI50 (NCI-H460) of the same compound?
Answer: 45.1 µM (inactive)

Question: What about the GI50 (IGROV-1) of the same compound?
Answer: > 100 µM (inactive)

Question: What about the GI50 (HOP-62) of the same compound?
Answer: > 100 µM (inactive)

Question: What about the GI50 (K562) of the same compound?
Answer: > 100 µM (inactive)

Question: And the GI50 (KM12)?
Answer: > 100 µM (inactive)

Question: And the GI50 (A549)?
Answer: > 100 µM (inactive)

Question: And the GI50 (U-251)?
Answer: > 100 µM (inactive)

Question: What about the GI50 (NCI-H522) of the same compound?
Answer: > 100 µM (inactive)

Question: What about the GI50 (SNB-75) of the same compound?
Answer: > 100 µM (inactive)

Question: What about the GI50 (Hs-578T) of the same compound?
Answer: > 100 µM (inactive)

Question: And the GI50 (MDA-N)?
Answer: 43.1 µM (inactive)

Question: And the GI50 (CCRF-CEM)?
Answer: > 100 µM (inactive)

Question: And the GI50 (SF-295)?
Answer: > 100 µM (inactive)

Question: And the GI50 (MDA-MB-435)?
Answer: > 100 µM (inactive)

Question: What about the GI50 (SW-620) of the same compound?
Answer: > 100 µM (inactive)

Question: And the GI50 (BT-549)?
Answer: > 100 µM (inactive)

Question: And the GI50 (LOX IMVI)?
Answer: > 100 µM (inactive)

Question: What about the GI50 (RPMI-8226) of the same compound?
Answer: > 100 µM (inactive)

Question: What about the GI50 (OVCAR-5) of the same compound?
Answer: > 100 µM (inactive)

Question: And the GI50 (OVCAR-3)?
Answer: > 100 µM (inactive)

Question: What about the GI50 (SF-268) of the same compound?
Answer: > 100 µM (inactive)

Question: And the GI50 (UO-31)?
Answer: > 100 µM (inactive)

Question: And the GI50 (SK-MEL-28)?
Answer: > 100 µM (inactive)

Question: And the GI50 (PC-3)?
Answer: > 100 µM (inactive)

Question: And the GI50 (RXF 393)?
Answer: > 100 µM (inactive)

Question: What about the GI50 (M14) of the same compound?
Answer: 55.1 µM (inactive)

Question: And the GI50 (MOLT-4)?
Answer: > 100 µM (inactive)

Question: What about the GI50 (HOP-92) of the same compound?
Answer: > 100 µM (inactive)

Question: And the GI50 (OVCAR-8)?
Answer: > 100 µM (inactive)

Question: What about the GI50 (COLO 205) of the same compound?
Answer: 50.5 µM (inactive)

Question: And the GI50 (HCT-15)?
Answer: > 100 µM

Question: What about the GI50 (MDA-MB-231) of the same compound?
Answer: > 100 µM (inactive)

Question: What about the GI50 (NCI-H226) of the same compound?
Answer: 38 µM (inactive)

Question: What about the GI50 (EKVX) of the same compound?
Answer: > 100 µM (inactive)

Question: What does the source list for `O=[N+]([O-])c1cccc(/C=N/N=c2\ccc3ccccc3[nH]2)c1O`?
Answer: GI50 (HCT-116): 0.526 µM (active); GI50 (NCI-H23): 1.82 µM (inactive); GI50 (Malme-3M): 1.88 µM (inactive); GI50 (SN12C): 1.53 µM (inactive); GI50 (SK-MEL-5): 0.984 µM (active); GI50 (SK-MEL-2): 4.4 µM (inactive); GI50 (SK-OV-3): 1.86 µM (inactive); GI50 (DU-145): 2.26 µM (inactive); GI50 (786-0): 0.658 µM (active); GI50 (HL-60): 0.619 µM (active); GI50 (ACHN): 0.478 µM (active); GI50 (UACC-257): 2.28 µM (inactive); GI50 (SNB-19): 4.92 µM (inactive); GI50 (MCF7): 1.94 µM (inactive); GI50 (CAKI-1): 0.665 µM (active); GI50 (SR): 0.466 µM (active); GI50 (OVCAR-4): 1.07 µM (active); GI50 (SF-539): 1.84 µM (inactive); GI50 (HT-29): 0.632 µM (active); GI50 (T47D): 0.807 µM (active); GI50 (NCI/ADR-RES): 0.151 µM (active); GI50 (TK-10): 2.51 µM (inactive); GI50 (UACC-62): 1.43 µM (inactive); GI50 (NCI-H460): 0.448 µM (active); GI50 (IGROV-1): 2.02 µM (inactive); GI50 (HOP-62): 0.815 µM (active); GI50 (K562): 1.35 µM (inactive); GI50 (KM12): 1.87 µM (inactive); GI50 (A549): 2.4 µM (inactive); GI50 (U-251): 1.11 µM (active); GI50 (NCI-H522): 1.2 µM (inactive); GI50 (Hs-578T): 16.2 µM (inactive); GI50 (MDA-N): 5.64 µM (inactive); GI50 (CCRF-CEM): 0.175 µM (active); GI50 (SF-295): 1.01 µM (active); GI50 (MDA-MB-435): 2.45 µM (inactive); GI50 (SW-620): 0.632 µM (active); GI50 (BT-549): 3.78 µM (inactive); GI50 (LOX IMVI): 1.47 µM (inactive); GI50 (RPMI-8226): 1.37 µM (inactive); GI50 (OVCAR-5): 3.08 µM (inactive); GI50 (OVCAR-3): 0.185 µM (active); GI50 (SF-268): 1.14 µM (inactive); GI50 (UO-31): 0.335 µM (active); GI50 (SK-MEL-28): 2.79 µM (inactive); GI50 (PC-3): 2.7 µM (inactive); GI50 (RXF 393): 2.07 µM (inactive); GI50 (M14): 1.13 µM (inactive); GI50 (A498): 5.68 µM (inactive); GI50 (MOLT-4): 0.83 µM (active); GI50 (HOP-92): 7.5 µM (inactive); GI50 (OVCAR-8): 2.21 µM (inactive); GI50 (COLO 205): 2.21 µM (inactive); GI50 (HCT-15): 0.146 µM; GI50 (MDA-MB-231): 2.78 µM (inactive); GI50 (NCI-H226): 2.64 µM (inactive); GI50 (EKVX): 1.48 µM (inactive)
